# Experiment: Photostability, illumination with high intensity mercury lamp
# Assay type: physicochemical
# Details: methanol solution; dissolved in methanol (4 mmol/l), mercury lamp 200-600 nm; read-out: Half-life of decomposition during illumination
smiles,measurement,value
COc1cc(/C=C/C(=O)CC(=O)/C=C/c2ccc(O)c(OC)c2)ccc1O [curcumin],half-life at 4 mmol/l,1.08 h
